Test results reported in patent publication US20230147053A1, “FUSED N-HETEROCYCLIC COMPOUNDS AND METHODS OF USE THEREOF” (Araxes Pharma LLC, priority 2017, published 2023).

What follows are molecules tested against T1, KRAS G12C 1-169, his-tagged protein, GDP-loaded (Homo sapiens, UniProt P01116, G12C) (assay: Biochemical assay: covalent binding (modification) of KRAS G12C measured by mass spectrometry). Conditions: covalent binding to KRAS G12C after a thirty minute incubation period.
T1 construct: KRAS G12C 1-169, his-tagged protein, GDP-loaded
Description: Test compounds were prepared as 10 mM stock solutions in DMSO (Fisher cat #BP-231-100). KRAS G12C 1-169, his-tagged protein, GDP-loaded was diluted to 2 μM or 0.5 μM in buffer (20 mM Hepes, 150 mM NaCl, 1 mM MgCl2). Compounds were tested for activity as follows:
Compounds were diluted to 50× final test concentration in DMSO in 96-well storage plates. Compound stock solutions were vortexed before use and observed carefully for any sign of precipitation. Dilutions were as follow: • For 100 μM final compound concentration, compounds were diluted to 5000 μM (5 μL 10 mM compound stock+5 μL DMSO and mixed well by pipetting. • For 30 μM final compound concentration, compounds were diluted to 1500 μM (3 μL 10 mM compound stock+17 μL DMSO) and mixed well by pipetting. • For 10 μM final compound concentration, compounds were diluted to 500 μM (2 μL 10 mM compound stock+38 μL DMSO) and mixed well by pipetting. 49 μL of the stock protein solution was added to each well of a 96-well PCR plate (Fisher cat #1423027). 1 μl of the diluted 50× compounds were added to appropriate wells in the PCR plate using 12-channel pipettor. Reactions were mixed carefully and thoroughly by pipetting up/down with a 200 μL multi-channel pipettor. The plate was sealed well with aluminum plate seal, and stored in drawer at room temperature for 10 minutes, 30 minutes, 2 hours or 24 hours. 5 μL of 2% formic acid (Fisher cat #A117) in de-ionized H2O was then added to each well followed by mixing with a pipette. The plate was then resealed with aluminum seal and stored on dry ice until analyzed as described below.
The above described assays were analyzed by mass spectrometry according to one of the following two procedures:
The MS instrument is set to positive polarity, 2 GHz resolution, and low mass (1700) mode and allowed to equilibrate for 30 minutes. The instrument is then calibrated, switched to acquisition mode and the appropriate method loaded.
After another 30 minute equilibration time, a blank batch (i.e., buffer) is run to ensure equipment is operating properly. The samples are thawed at 37° C. for 10 minutes, briefly centrifuged, and transfer to the bench top. Wells A1 and H12 are spiked with 1 μL 500 μM internal standard peptide, and the plates centrifuged at 2000×g for 5 minutes. The method is then run and masses of each individual well recorded.
The masses (for which integration data is desired) for each well are pasted into the platemap and exported from the analysis. Masses for the internal standards are exported as well. The data at 50 ppm is extracted for the +19 charge state, and identity of well A1 is assigned using the internal standard spike and integrated. Peak data is exported as a TOF list and the above steps are repeated individually, for the +20, 21, 22, 23, 24, and 25 charge states.
The masses and peak intensities of KRAS G12C protein species were measured using a Dionex RSLCnano system (Thermo Scientific) connected to a Q Exactive Plus mass spectrometer (Thermo Scientific).
[…] of sample was each loaded onto a Aeris™ 3.6 μm WIDEPORE C4 200 A, LC Column 50×2.1 mm column maintained at 40° C. at a flow rate of 600 μL/min with […] (0.1% formic acid in acetonitrile). The liquid chromatography conditions were 20% solvent B for 1 minute, 20% to 60% solvent B for 1.5 minutes, 60% to 90% solvent for 0.5 minute, 90% solvent B for 0.2 minute, 90% to 20% solvent B for 0.2 minute, and then equilibrated for 1.6 minute before the following sample injection. The flow rate was maintained at 600 μL/min throughout the sample analysis.
The mass spectrometer was operated in profile mode at a resolution of 17500, 5 microscans, using 50 msec max injection time and an AGC target of 1×10^6, and a full mass range from 800-1850 m/z was recorded. The HCD trapping gas was optimized for maximum sensitivity for intact proteins. […]

SMILES	Binding %
C=CC(=O)N1CC(c2ccc3c(c2)CCCN(c2cccc4[nH]ncc24)C3)C1 [Compound 5, 1-(3-(2-(1H-indazol-4-yl)-2,3,4,5-tetrahydro-1H-benzo[c]azepin-7-yl)azetidin-1-yl)prop-2-en-1-one]	+ (+ indicates binding activity up to 5%)
C=CC(=O)N1CC(c2ccc3c(c2)CN(c2cc(O)cc4ccccc24)C3)C1 [Compound 6, 1-(3-(2-(3-hydroxynaphthalen-1-yl)isoindolin-5-yl)azetidin-1-yl)prop-2-en-1-one]	+++ (+++ indicates binding activity greater than 50%)
C=CC(=O)N1CC(c2ccc3c(c2)CN(c2cc(O)cc4ccccc24)C3=O)C1 [Compound 8, 5-(1-acryloylazetidin-3-yl)-2-(3-hydroxynaphthalen-1-yl)isoindolin-1-one]	+++ (+++ indicates binding activity greater than 50%)
C=CC(=O)N1CC(c2ccc3c(c2)CN(c2c(C)ccc4[nH]ncc24)C3=O)C1 [Compound 9, 5-(1-acryloylazetidin-3-yl)-2-(5-methyl-1H-indazol-4-yl)isoindolin-1-one]	+ (+ indicates binding activity up to 5%)
C=CC(=O)N1CC(c2ccc3c(c2)C(=O)N(c2cc(O)cc4ccccc24)C3)C1 [Compound 10, 6-(1-acryloylazetidin-3-yl)-2-(3-hydroxynaphthalen-1-yl)isoindolin-1-one]	++ (++ indicates binding activity from 5% to 50%)
C=CC(=O)N1CC(c2ccc3c(c2)C(=O)N(c2c(C)ccc4[nH]ncc24)C3)C1 [Compound 11, 6-(1-acryloylazetidin-3-yl)-2-(5-methyl-1H-indazol-4-yl)isoindolin-1-one]	+ (+ indicates binding activity up to 5%)
C=CC(=O)N1CC(c2ccc3[nH]c(-c4cc(O)cc5ccccc45)cc3c2)C1 [Compound 14, 1-(3-(2-(3-hydroxynaphthalen-1-yl)-1H-indol-5-yl)azetidin-1-yl)prop-2-en-1-one]	+++ (+++ indicates binding activity greater than 50%)
C=CC(=O)N1CC(c2ccc3c(=O)n(-c4cc(O)cc5ccccc45)ccc3c2)C1 [Compound 18, 6-(1-acryloylazetidin-3-yl)-2-(3-hydroxynaphthalen-1-yl)isoquinolin-1(2H)-one]	+++ (+++ indicates binding activity greater than 50%)
C=CC(=O)N1CC(c2ccc3c(=O)n(-c4c(C)ccc5[nH]ncc45)ccc3c2)C1 [Compound 19, 6-(1-acryloylazetidin-3-yl)-2-(5-methyl-1H-indazol-4-yl)isoquinolin-1(2H)-one]	+ (+ indicates binding activity up to 5%)
C=CC(=O)N1CC(c2ccc3cn(-c4cc(O)cc5ccccc45)c(=O)cc3c2)C1 [Compound 22, 6-(1-acryloylazetidin-3-yl)-2-(3-hydroxynaphthalen-1-yl)isoquinolin-3(2H)-one]	+ (+ indicates binding activity up to 5%)
C=CC(=O)N1CC(c2ccc3cn(-c4c(C)ccc5[nH]ncc45)c(=O)cc3c2)C1 [Compound 23, 6-(1-acryloylazetidin-3-yl)-2-(5-methyl-1H-indazol-4-yl)isoquinolin-3(2H)-one]	+ (+ indicates binding activity up to 5%)
C=CC(=O)N1CC(c2ccc3c(c2)NC(=O)N(c2cc(O)cc4ccccc24)C3)C1 [Compound 24, 7-(1-acryloylazetidin-3-yl)-3-(3-hydroxynaphthalen-1-yl)-3,4-dihydroquinazolin-2(1H)-one]	+++ (+++ indicates binding activity greater than 50%)
C=CC(=O)N1CC(c2ccc3c(c2)NC(=O)N(c2c(C)ccc4[nH]ncc24)C3)C1 [Compound 25, 7-(1-acryloylazetidin-3-yl)-3-(5-methyl-1H-indazol-4-yl)-3,4-dihydroquinazolin-2(1H)-one]	++ (++ indicates binding activity from 5% to 50%)
C=CC(=O)N1CC(c2ccc3cc(-c4cc(O)cc5ccccc45)ncc3c2)C1 [Compound 26, 1-(3-(3-(3-hydroxynaphthalen-1-yl)isoquinolin-7-yl)azetidin-1-yl)prop-2-en-1-one]	++ (++ indicates binding activity from 5% to 50%)
C=CC(=O)N1CCC(c2ccc3c(c2)CCN(c2c(C)ccc4[nH]ncc24)C3=O)C1 (centres unmarked) [Compound 32, 6-(1-acryloylpyrrolidin-3-yl)-2-(5-methyl-1H-indazol-4-yl)-3,4-dihydroisoquinolin-1(2H)-one]	+ (+ indicates binding activity up to 5%)
C=CC(=O)N1CC(c2ccc3cc(-c4cc(O)cc5ccccc45)[nH]c3c2)C1 [Compound 33, 1-(3-(2-(3-hydroxynaphthalen-1-yl)-1H-indol-6-yl)azetidin-1-yl)prop-2-en-1-one]	++ (++ indicates binding activity from 5% to 50%)
C=CC(=O)N1CC(c2ccc3cc(-c4cc(O)cc5ccccc45)n(CC(N)=O)c3c2)C1 [Compound 34, 2-(6-(1-acryloylazetidin-3-yl)-2-(3-hydroxynaphthalen-1-yl)-1H-indol-1-yl)acetamide]	+ (+ indicates binding activity up to 5%)
C=CC(=O)N1CC(c2ccc3cc(-c4c(C)ccc5[nH]ncc45)[nH]c3c2)C1 [Compound 35, 1-(3-(2-(5-methyl-1H-indazol-4-yl)-1H-indol-6-yl)azetidin-1-yl)prop-2-en-1-one]	+ (+ indicates binding activity up to 5%)
C=CC(=O)N1CC(c2ccc3c(Nc4cc(O)cc5ccccc45)ncnc3c2)C1 [Compound 36, 1-(3-(4-((3-hydroxynaphthalen-1-yl)amino)quinazolin-7-yl)azetidin-1-yl)prop-2-en-1-one]	+ (+ indicates binding activity up to 5%)
C=CC(=O)N1CC(Nc2cccc3c(-c4cc(O)cc5ccccc45)ccnc23)C1 [Compound 37, 1-(3-((4-(3-hydroxynaphthalen-1-yl)quinolin-8-yl)amino)azetidin-1-yl)prop-2-en-1-one]	+++ (+++ indicates binding activity greater than 50%)
C=CC(=O)N1CC(c2ccc3c(Nc4c(C)ccc5[nH]ncc45)ncnc3c2)C1 [Compound 38, 1-(3-(4-((5-methyl-1H-indazol-4-yl)amino)quinazolin-7-yl)azetidin-1-yl)prop-2-en-1-one]	+ (+ indicates binding activity up to 5%)
C=CC(=O)N1CC(NC(=O)c2ccc3c(-c4cc(O)cc5ccccc45)ccnc3c2)C1 [Compound 39, N-(1-acryloylazetidin-3-yl)-4-(3-hydroxynaphthalen-1-yl)quinoline-7-carboxamide]	++ (++ indicates binding activity from 5% to 50%)
C=CC(=O)N1CC(c2ccc3c(c2)cc(-c2cc(O)cc4ccccc24)n3CC(N)=O)C1 [Compound 40, 2-(5-(1-acryloylazetidin-3-yl)-2-(3-hydroxynaphthalen-1-yl)-1H-indol-1-yl)acetamide]	++ (++ indicates binding activity from 5% to 50%)
